From patent US8614327B2 (Vertex Pharmaceuticals Incorporated, priority 2004, dated 2013)

Biological target: T1, ΔF508-CFTR (Homo sapiens, UniProt P13569, DEL508-508)
T1 construct: expressed in transfected cells
Experiment: Membrane potential optical (FRET/VIPR) assay, identification of potentiator compounds
Format: cell-based
Details: Table 3, assay not given; for % Activity: relative efficacy
In short: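 NIH3T3 mouse fibroblasts stably expressing ΔF508-CFTR, temperature-corrected 24 h at 27° C., read on VIPR by FRET between CC2-DMPE and DiSBAC2(3). Potentiators identified in a double-addition format, first adding chloride-free (gluconate) medium with or without compound.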

T1 sequence (P13569 with tags, fused parts or gaps DEL508-508): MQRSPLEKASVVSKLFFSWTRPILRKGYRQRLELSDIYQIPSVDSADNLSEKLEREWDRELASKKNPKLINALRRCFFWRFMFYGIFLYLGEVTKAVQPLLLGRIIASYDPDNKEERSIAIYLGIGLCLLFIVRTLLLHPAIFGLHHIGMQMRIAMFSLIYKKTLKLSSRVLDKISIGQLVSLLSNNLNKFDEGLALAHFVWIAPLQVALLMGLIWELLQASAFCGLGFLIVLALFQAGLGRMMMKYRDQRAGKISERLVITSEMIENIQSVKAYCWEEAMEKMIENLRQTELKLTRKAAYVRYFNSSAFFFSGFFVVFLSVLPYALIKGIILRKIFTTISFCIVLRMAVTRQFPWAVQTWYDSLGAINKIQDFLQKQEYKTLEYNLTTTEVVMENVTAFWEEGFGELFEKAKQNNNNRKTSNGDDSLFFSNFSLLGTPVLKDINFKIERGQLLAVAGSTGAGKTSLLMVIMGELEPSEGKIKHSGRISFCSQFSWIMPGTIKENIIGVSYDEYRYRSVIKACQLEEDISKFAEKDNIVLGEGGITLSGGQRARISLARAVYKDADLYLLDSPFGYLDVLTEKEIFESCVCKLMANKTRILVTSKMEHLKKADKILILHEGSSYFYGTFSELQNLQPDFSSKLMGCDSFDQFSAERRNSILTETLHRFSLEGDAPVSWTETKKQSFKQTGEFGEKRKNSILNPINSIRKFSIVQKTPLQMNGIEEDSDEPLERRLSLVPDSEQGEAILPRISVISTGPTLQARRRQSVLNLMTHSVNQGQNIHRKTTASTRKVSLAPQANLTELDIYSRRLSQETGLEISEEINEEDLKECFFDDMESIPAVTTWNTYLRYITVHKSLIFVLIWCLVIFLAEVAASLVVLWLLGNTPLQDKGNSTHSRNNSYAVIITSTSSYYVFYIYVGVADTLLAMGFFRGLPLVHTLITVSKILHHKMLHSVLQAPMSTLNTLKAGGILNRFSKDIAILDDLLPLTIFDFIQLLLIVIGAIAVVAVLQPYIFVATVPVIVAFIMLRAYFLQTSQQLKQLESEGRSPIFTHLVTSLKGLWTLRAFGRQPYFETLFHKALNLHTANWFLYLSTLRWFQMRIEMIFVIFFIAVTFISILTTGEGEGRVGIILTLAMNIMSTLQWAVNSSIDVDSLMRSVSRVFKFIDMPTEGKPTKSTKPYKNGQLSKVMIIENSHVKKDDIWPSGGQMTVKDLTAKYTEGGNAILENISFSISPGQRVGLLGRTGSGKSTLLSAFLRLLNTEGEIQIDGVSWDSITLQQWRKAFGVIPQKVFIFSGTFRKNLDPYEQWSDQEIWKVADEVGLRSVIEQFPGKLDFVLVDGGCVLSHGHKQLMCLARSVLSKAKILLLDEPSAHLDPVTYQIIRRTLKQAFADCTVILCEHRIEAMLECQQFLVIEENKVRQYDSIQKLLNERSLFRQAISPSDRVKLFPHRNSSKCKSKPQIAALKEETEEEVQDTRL

Row | Compound | EC50 [µM] | % Activity
1 | CC(C)c1cccc(-c2ccccc2NC(=O)c2c[nH]c3ccccc3c2=O)c1 [Compound 290, N-[2-(3-isopropylphenyl)phenyl]-4-oxo-1H-quinoline-3-carboxamide] | < 10 | ++ (between 25% to 100%)
2 | CC(C)(C)c1cc(Cl)c(NC(=O)c2c[nH]c3ccccc3c2=O)cc1O [Compound 291, N-(2-chloro-5-hydroxy-4-tert-butyl-phenyl)-4-oxo-1H-quinoline-3-carboxamide] | – | ++ (between 25% to 100%)
3 | O=C(Nc1cc(Cl)ccc1Oc1ccccc1)c1c[nH]c2ccccc2c1=O [Compound 292, N-(5-chloro-2-phenoxy-phenyl)-4-oxo-1H-quinoline-3-carboxamide] | < 10 | ++ (between 25% to 100%)
4 | O=C(Nc1ccccc1-n1cccc1)c1c[nH]c2ccccc2c1=O [Compound 293, 4-oxo-N-[2-(1H-pyrrol-1-yl)phenyl]-1H-quinoline-3-carboxamide] | 10 to 25 | +++ (>100%)
5 | O=C(Nc1ccc2[nH]ccc2c1)c1c[nH]c2ccccc2c1=O [Compound 294, N-(1H-indol-5-yl)-4-oxo-1H-quinoline-3-carboxamide] | 10 to 25 | ++ (between 25% to 100%)
6 | O=C(Nc1ccccc1N1CCCC1)c1c[nH]c2ccccc2c1=O [Compound 295, 4-oxo-N-(2-pyrrolidin-1-ylphenyl)-1H-quinoline-3-carboxamide] | < 10 | ++ (between 25% to 100%)
7 | COc1nc2ccccc2c(OC)c1C(=O)Nc1ccccc1C(C)(C)C [Compound 296, 2,4-dimethoxy-N-(2-tert-butylphenyl)-quinoline-3-carboxamide] | 10 to 25 | ++ (between 25% to 100%)
8 | Cc1ccc(C)n1-c1ccccc1NC(=O)c1c[nH]c2ccccc2c1=O [Compound 297, N-[2-(2,5-dimethyl-1H-pyrrol-1-yl)phenyl]-4-oxo-1H-quinoline-3-carboxamide] | < 10 | ++ (between 25% to 100%)
9 | CCOC(=O)Nc1cc(NC(=O)c2c[nH]c3ccccc3c2=O)ccc1CC [Compound 298, [2-ethyl-5-[(4-oxo-1H-quinolin-3-yl)carbonylamino]phenyl]aminoformic acid ethyl ester] | – | ++ (between 25% to 100%)
10 | O=C(Nc1ccc2c(c1)NCCC2)c1c[nH]c2ccccc2c1=O [Compound 299, 4-Oxo-N-(1,2,3,4-tetrahydroquinolin-7-yl)-1H-quinoline-3-carboxamide] | < 10 | ++ (between 25% to 100%)
11 | CC1(C)CCNc2cc(NC(=O)c3c[nH]c4ccccc4c3=O)ccc21 [Compound 300, N-(4,4-Dimethyl-1,2,3,4-tetrahydroquinolin-7-yl)-4-oxo-1H-quinoline-3-carboxamide] | < 10 | ++ (between 25% to 100%)
12 | Cn1cnnc1-c1ccc(NC(=O)c2c[nH]c3ccccc3c2=O)cc1 [Compound 301, N-[4-(4-methyl-4H-1,2,4-triazol-3-yl)phenyl]-4-oxo-1H-quinoline-3-carboxamide] | 25 to 60 | + (<25%)
13 | O=C(Nc1ccccc1-c1ccc(CO)cc1)c1c[nH]c2ccccc2c1=O [Compound 302, N-[2-[4-(hydroxymethyl)phenyl]phenyl]-4-oxo-1H-quinoline-3-carboxamide] | 10 to 25 | ++ (between 25% to 100%)
14 | CC(=O)N1CCc2ccc(NC(=O)c3c[nH]c4ccccc4c3=O)cc2C1 [Compound 303, N-(2-acetyl-1,2,3,4-tetrahydroisoquinolin-7-yl)-4-oxo-1H-quinoline-3-carboxamide] | 10 to 25 | ++ (between 25% to 100%)
15 | CCOc1ccccc1-c1ccc(CNC(=O)OC(C)(C)C)cc1NC(=O)c1c[nH]c2ccccc2c1=O [Compound 304, {2′-Ethoxy-2-[(4-oxo-1,4-dihydroquinoline-3-carbonyl)-amino]-biphenyl-4-ylmethyl}-carbamic acid tert-butyl ester] | < 10 | ++ (between 25% to 100%)
16 | COc1ccc(-c2ccccc2NC(=O)c2c[nH]c3ccccc3c2=O)cc1 [Compound 305, N-[2-(4-methoxyphenyl)phenyl]-4-oxo-1H-quinoline-3-carboxamide] | < 10 | +++ (>100%)
17 | CCOc1cccc(-c2ccccc2NC(=O)c2c[nH]c3ccccc3c2=O)c1 [Compound 306, N-[2-(3-ethoxyphenyl)phenyl]-4-oxo-1H-quinoline-3-carboxamide] | < 10 | +++ (>100%)
18 | O=C(Nc1ccccc1-c1cccc(Cl)c1)c1c[nH]c2ccccc2c1=O [Compound 307, N-[2-(3-chlorophenyl)phenyl]-4-oxo-1H-quinoline-3-carboxamide] | < 10 | ++ (between 25% to 100%)
19 | N#CCc1ccccc1NC(=O)c1c[nH]c2ccccc2c1=O [Compound 308, N-[2-(cyanomethyl)phenyl]-4-oxo-1H-quinoline-3-carboxamide] | 10 to 25 | ++ (between 25% to 100%)

Row | Compound | EC50 [µM] | % Activity
20 | O=C(Nc1cc2ccccc2cn1)c1c[nH]c2ccccc2c1=O [Compound 309, N-(3-isoquinolyl)-4-oxo-1H-quinoline-3-carboxamide] | 25 to 60 | + (<25%)
21 | CCC(C)c1ccc(NC(=O)c2c[nH]c3ccccc3c2=O)cc1 (centres unmarked) [Compound 310, 4-oxo-N-(4-sec-butylphenyl)-1H-quinoline-3-carboxamide] | < 10 | ++ (between 25% to 100%)
22 | Cc1ccc(-c2ccccc2NC(=O)c2c[nH]c3ccccc3c2=O)o1 [Compound 311, N-[2-(5-methyl-2-furyl)phenyl]-4-oxo-1H-quinoline-3-carboxamide] | < 10 | ++ (between 25% to 100%)
23 | COc1ccc(-c2ccccc2NC(=O)c2c[nH]c3ccccc3c2=O)c(OC)c1 [Compound 312, N-[2-(2,4-dimethoxyphenyl)phenyl]-4-oxo-1H-quinoline-3-carboxamide] | < 10 | ++ (between 25% to 100%)
24 | O=C(Nc1ccccc1-c1ccccc1F)c1c[nH]c2ccccc2c1=O [Compound 313, N-[2-(2-fluorophenyl)phenyl]-4-oxo-1H-quinoline-3-carboxamide] | < 10 | ++ (between 25% to 100%)
25 | CCc1cccc(C(C)C)c1NC(=O)c1c[nH]c2ccccc2c1=O [Compound 314, N-(2-ethyl-6-isopropyl-phenyl)-4-oxo-1H-quinoline-3-carboxamide] | – | ++ (between 25% to 100%)
26 | Cc1cccc(C)c1NC(=O)c1c[nH]c2ccccc2c1=O [Compound 315, N-(2,6-dimethylphenyl)-4-oxo-1H-quinoline-3-carboxamide] | < 10 | ++ (between 25% to 100%)
27 | CC(=O)Nc1ccc(C(C)(C)C)c(NC(=O)c2c[nH]c3ccccc3c2=O)c1 [Compound 316, N-(5-acetylamino-2-tert-butyl-phenyl)-4-oxo-1H-quinoline-3-carboxamide] | 10 to 25 | ++ (between 25% to 100%)
28 | O=C(Nc1c(Cl)cccc1Cl)c1c[nH]c2ccccc2c1=O [Compound 317, N-(2,6-dichlorophenyl)-4-oxo-1H-quinoline-3-carboxamide] | < 10 | ++ (between 25% to 100%)
29 | O=C(Nc1cc(NS(=O)(=O)CCN2CCCCC2)cc(C(F)(F)F)c1)c1c[nH]c2ccccc2c1=O [Compound 318, 4-Oxo-N-[3-[2-(1-piperidyl)ethylsulfonylamino]-5-(trifluoromethyl)phenyl]-1H-quinoline-3-carboxamide] | 10 to 25 | ++ (between 25% to 100%)
30 | CC(C)(C)c1cc(F)c(NC(=O)c2c[nH]c3ccc(F)cc3c2=O)cc1O [Compound 319, 6-fluoro-N-(2-fluoro-5-hydroxy-4-tert-butyl-phenyl)-4-oxo-1H-quinoline-3-carboxamide] | < 10 | ++ (between 25% to 100%)
31 | CC(C)(C)c1cc2ccc(NC(=O)c3c[nH]c4ccccc4c3=O)cc2[nH]1 [Compound 320, 4-oxo-N-(2-tert-butyl-1H-indol-6-yl)-1H-quinoline-3-carboxamide] | < 10 | ++ (between 25% to 100%)
32 | O=C(Nc1ccccc1N1CCN(C(=O)c2ccccc2)CC1)c1c[nH]c2ccccc2c1=O [Compound 321, N-[2-(4-benzoylpiperazin-1-yl)phenyl]-4-oxo-1H-quinoline-3-carboxamide] | < 10 | ++ (between 25% to 100%)
33 | CCc1cccc(C(C)CC)c1NC(=O)c1c[nH]c2ccccc2c1=O (centres unmarked) [Compound 322, N-(2-ethyl-6-sec-butyl-phenyl)-4-oxo-1H-quinoline-3-carboxamide] | < 10 | ++ (between 25% to 100%)
34 | COC(=O)NCC(C)(C)c1ccc(NC(=O)c2c[nH]c3ccccc3c2=O)cc1 [Compound 323, [2-Methyl-2-[4-[(4-oxo-1H-quinolin-3-yl)carbonylamino]phenyl]-propyl]aminoformic acid methyl ester] | < 10 | ++ (between 25% to 100%)
35 | CCCCc1ccc(NC(=O)c2c[nH]c3ccccc3c2=O)cc1 [Compound 324, N-(4-butylphenyl)-4-oxo-1H-quinoline-3-carboxamide] | < 10 | ++ (between 25% to 100%)
36 | CCc1cccc(CC)c1NC(=O)c1c[nH]c2ccccc2c1=O [Compound 325, N-(2,6-diethylphenyl)-4-oxo-1H-quinoline-3-carboxamide] | < 10 | ++ (between 25% to 100%)
37 | CS(=O)(=O)c1ccc(-c2ccccc2NC(=O)c2c[nH]c3ccccc3c2=O)cc1 [Compound 326, N-[2-(4-methylsulfonylphenyl)phenyl]-4-oxo-1H-quinoline-3-carboxamide] | 10 to 25 | ++ (between 25% to 100%)
